The values that follow come from EP4389751A1, “HETEROCYCLIC COMPOUNDS AND USES THEREOF” (Kumquat Biosciences Inc., priority 2021, dated 2024).

The target of the test is T1, K-Ras G12S (Homo sapiens, UniProt P01116, G12S).
T1 construct: made in house; host or cells: E. coli (e.g., BL21 (DE3))
T1 sequence (P01116 1-188 isoform P01116-2 G12S): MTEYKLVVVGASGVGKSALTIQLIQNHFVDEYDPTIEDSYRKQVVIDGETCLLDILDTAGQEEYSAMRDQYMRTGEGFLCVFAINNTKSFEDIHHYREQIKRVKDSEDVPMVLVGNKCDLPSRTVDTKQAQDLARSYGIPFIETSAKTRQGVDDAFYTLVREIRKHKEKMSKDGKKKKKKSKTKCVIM
The test is described as follows: HTRF assay of the K-Ras / SOS1 interaction. The format is biochemical. Conditions: IC50 (against K-Ras G12D) to IC50 (against K-Ras G12S). The method, boiled down: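 GST-K-Ras G12S with anti-GST-Eu donor and His-hSOS1 with anti-6His-XL665 acceptor in ~5 mM HEPES pH 7.4, ~150 mM NaCl, 1 mM DTT, 0.05% BSA, 0.0025% Igepal. Read after ~10 min or longer; IC50 from 665/620 nm ratio, duplicates at 10 µM down to 0.01 µM.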
As for `Cc1ncn(C(=O)N2CC3(CCCN(c4nc(OC[C@@]56CCCN5C[C@H](F)C6)nc5c(F)c(-c6ccc(F)c7sc(N)c(C#N)c67)c(Cl)cc45)C3)C2)n1` [Compound A102, 2-amino-4-(6-chloro-8-fluoro-2-(((2R,7aS)-2-fluorotetrahydro-1H-pyrrolizin-7 a(5H)-yl)methoxy)-4-(2-(3-methyl-1H-1,2,4-triazole-1-carbonyl)-2,6-diazaspiro[3.5]nonan-6-yl)quinazolin-7-yl)-7-fluorobenzo[b]thiophene-3-carbonitrile], the “Ratio of IC50 KRAS G12D vs. IC50 KRAS G12S” value (shortened to “Ratio”) was “A (A: indicates that the ratio of IC50 against KrasG12D vs. IC50 against KrasG12S is 1-fold or greater)”.

Take `N#CCc1ncn(C(=O)N2CC3(C2)CN(c2nc(OC[C@@]45CCCN4C[C@H](F)C5)nc4c(F)c(-c5ccc(F)c6sc(N)c(C#N)c56)c(Cl)cc24)CCO3)n1` [Compound A110, 2-amino-4-(6-chloro-4-(2-(3-(cyanomethyl)-1H-1,2,4-triazole-1-carbonyl)-5-oxa-2,8-diazaspiro[3.5]nonan-8-yl)-8-fluoro-2-(((2R,7aS)-2-fluorotetrahydro-1H-pyrrolizin-7a(5H)-yl)methoxy)quinazolin-7-yl)-7-fluorobenzo[b]thiophene-3-carbonitrile]: the “Ratio” value was “A (A: indicates that the ratio of IC50 against KrasG12D vs. IC50 against KrasG12S is 1-fold or greater)”.

On to `COCCN1CCC(Oc2nc(N3CCCCC4(CN(C(=O)n5cncn5)C4)C3)c3cc(Cl)c(-c4ccc(F)c5sc(N)c(C#N)c45)c(F)c3n2)CC1` [Compound A119, 4-(4-(2-(1H-1,2,4-triazole-1-carbonyl)-2,6-diazaspiro[3.6]decan-6-yl)-6-chloro-8-fluoro-2-((1-(2-methoxyethyl)piperidin-4-yl)oxy)quinazolin-7-yl)-2-amino-7-fluorobenzo[b]thiophene-3-carbonitrile], for which the “Ratio” value is recorded as “A (A: indicates that the ratio of IC50 against KrasG12D vs. IC50 against KrasG12S is 1-fold or greater)”.

Regarding `N#Cc1cn(C(=O)N2C3CCC2CN(c2nc(OC[C@@]45CCCN4C[C@H](F)C5)nc4c(F)c(-c5ccc(F)c6sc(N)nc56)c(Cl)cc24)C3)cn1` [Compound A123, 1-(3-(7-(2-amino-7-fluorobenzo[d]thiazol-4-yl)-6-chloro-8-fluoro-2-(((2R,7aS)-2-fluorotetrahydro-1H-pyrrolizin-7a(5H)-yl)methoxy)quinazolin-4-yl)-3,8-diazabicyclo[3.2. 1]octane-8-carbonyl)-1H-imidazole-4-carbonitrile], the “Ratio” value is listed as “A (A: indicates that the ratio of IC50 against KrasG12D vs. IC50 against KrasG12S is 1-fold or greater)”.

For the compound `N#Cc1c(N)sc2c(F)ccc(-c3c(Cl)cc4c(N5CCCC6(CN(C(=O)n7cncn7)C6)C5)nc(OC[C@@]56CCCN5C[C@H](F)C6)nc4c3F)c12` [Compound A129, 4-(4-(2-(1H-1,2,4-triazole-1-carbonyl)-2,6-diazaspiro[3.5]nonan-6-yl)-6-chloro-8-fluoro-2-(((2R,7aS)-2-fluorotetrahydro-1H-pyrrolizin-7a(5H)-yl)methoxy)quinazolin-7-yl)-2-amino-7-fluorobenzo[b]thiophene-3-carbonitrile], the “Ratio” value is reported as “A (A: indicates that the ratio of IC50 against KrasG12D vs. IC50 against KrasG12S is 1-fold or greater)”.

In the case of `N#Cc1c(N)sc2c(F)ccc(-c3ncc4c(N5CCCC6(CN(C(=O)n7cncn7)C6)C5)nc(OC[C@@]56CCCN5C[C@H](F)C6)nc4c3F)c12` [Compound A134, 4-(4-(2-(1H-1,2,4-triazole-1-carbonyl)-2,6-diazaspiro[3.5]nonan-6-yl)-8-fluoro-2-(((2R,7aS)-2-fluorotetrahydro-1H-pyrrolizin-7a(5H)-yl)methoxy)pyrido[4,3-d]pyrimidin-7-yl)-2-amino-7-fluorobenzo[b]thiophene-3-carbonitrile], the “Ratio” value was “A (A: indicates that the ratio of IC50 against KrasG12D vs. IC50 against KrasG12S is 1-fold or greater)”.

In the case of `Nc1nc2c(-c3c(Cl)cc4c(N5CCCC6(CN(C(=O)n7cncn7)C6)C5)nc(OC[C@@]56CCCN5C[C@H](F)C6)nc4c3F)ccc(F)c2s1` [Compound A136, (6-(7-(2-amino-7-fluorobenzo[d]thiazol-4-yl)-6-chloro-8-fluoro-2-(((2R,7aS)-2-fluorotetrahydro-1H-pyrrolizin-7a(5H)-yl)methoxy)quinazolin-4-yl)-2,6-diazaspiro[3.5]nonan-2-yl)(1H-1,2,4-triazol-1-yl)methanone], the “Ratio” value is listed as “A (A: indicates that the ratio of IC50 against KrasG12D vs. IC50 against KrasG12S is 1-fold or greater)”.

Consider `CN1CCC[C@H]1COc1nc(N2CCOC3(CN(C(=O)n4cncn4)C3)C2)c2cc(Cl)c(-c3ccc(F)c4sc(N)c(C#N)c34)c(F)c2n1` [Compound A137, 4-(4-(2-(1H-1,2,4-triazole-1-carbonyl)-5-oxa-2,8-diazaspiro[3.5]nonan-8-yl)-6-chloro-8-fluoro-2-(((S)-1-methylpyrrolidin-2-yl)methoxy)quinazolin-7-yl)-2-amino-7-fluorobenzo[b]thiophene-3-carbonitrile], for which the “Ratio” value is on record as “A (A: indicates that the ratio of IC50 against KrasG12D vs. IC50 against KrasG12S is 1-fold or greater)”.

Turning to `Nc1nc2c(-c3c(Cl)cc4c(N5CCN(C(=O)n6cncn6)CC(F)(F)C5)nc(OC[C@@]56CCCN5C[C@H](F)C6)nc4c3F)ccc(F)c2s1` [Compound A141, (4-(7-(2-amino-7-fluorobenzo[d]thiazol-4-yl)-6-chloro-8-fluoro-2-(((2R,7aS)-2-fluorotetrahydro-1H-pyrrolizin-7a(5H)-yl)methoxy)quinazolin-4-yl)-6,6-difluoro-1,4-diazepan-1-yl)(1H-1,2,4-triazol-1-yl)methanone], the “Ratio” value is “A (A: indicates that the ratio of IC50 against KrasG12D vs. IC50 against KrasG12S is 1-fold or greater)”.

Turning to `Nc1nc2c(-c3c(Cl)cc4c(N5CCN(C(=O)n6cncn6)CC5)nc(OC[C@@]56CCCN5C[C@H](F)C6)nc4c3F)ccc(F)c2s1` [Compound A146, (4-(7-(2-amino-7-fluorobenzo[d]thiazol-4-yl)-6-chloro-8-fluoro-2-(((2R,7aS)-2-fluorotetrahydro-1H-pyrrolizin-7a(5H)-yl)methoxy)quinazolin-4-yl)piperazin-1-yl)(1H-1,2,4-triazol-1-yl)methanone], the “Ratio” value was “A (A: indicates that the ratio of IC50 against KrasG12D vs. IC50 against KrasG12S is 1-fold or greater)”.

`Cc1ncn(C(=O)N2CC3(C2)CN(c2nc(OC[C@@]45CCCN4C[C@H](F)C5)nc4c(F)c(-c5ccc(F)c6sc(N)c(C#N)c56)c(Cl)cc24)CCO3)n1` [Compound A148, 2-amino-4-(6-chloro-8-fluoro-2-(((2R,7aS)-2-fluorotetrahydro-1H-pyrrolizin-7 a(5H)-yl)methoxy)-4-(2-(3-methyl-1H-1,2,4-triazole-1-carbonyl)-5-oxa-2,8-diazaspiro[3.5]nonan-8-yl)quinazolin-7-yl)-7-fluorobenzo[b]thiophene-3-carbonitrile]: the “Ratio” value was “A (A: indicates that the ratio of IC50 against KrasG12D vs. IC50 against KrasG12S is 1-fold or greater)”.
